Assay results: patent publication US7098307B2, “Neo-tryptophan” (Mayo Foundation for Medical Education and Research, priority 1998, dated 2006)
Like-named read-outs stand apart in the source and are kept apart here. Square brackets hold non-standard residues; d marks the D form. Peptide text beside a SMILES is read from it. Ala(indol-4-yl) = N[C@@H](Cc1cccc2[nH]ccc12)C(=O)O; NMeR = CN[C@@H](CCCNC(=N)N)C(=O)O; Tle = CC(C)(C)[C@H](N)C(=O)O

Legend:
[1] = Degradation in rat intestinal preparation; assay type: in vitro ADME; conditions: pH 7.4, 37° C., read-out: half-time, Rat Intestinal Preparation (converted)
Experimental: For intestinal preparations, rats were sacrificed by decapitation, and the small intestines removed. The tissue was washed with ice-cold PBS (10 mM, pH 7.4). About […] of intestinal tissue was added to about 10 mL of PBS and homogenized using a Brinkman polytron homogenizer (setting 6). After homogenization, 10 mL of PBS was added to 10 mL of the intestinal homogenate. […] The supernatant was removed and stored at −20° C. until testing. Immediately before incubation with the polypeptide, the intestinal preparation was filtered through a 0.2 μm filter. Testing procedures were similar to those for the plasma tests.
(§1) For the degradation studies, data were plotted in linear form as a semi-log plot with SigmaPlot for Windows Version 4.00. Linear regression on these plots provided the parameters used to calculate the half-time (t1/2) for degradation of each polypeptide. The correlation coefficient (R) for the linear regression was taken as a measure of the goodness-of-fit.

[2] = Hot plate test (antinociception, % MPE) in rats; conditions: for induction of antinociception (hot plate): intraperitoneal administration (NT64L 1 mg/kg); for ED50 % MPE: intraperitoneal
rat NTR1 [3] = biological target: T1, rat NTR1 (Rattus norvegicus, UniProt P20789); assay: PI turnover ([3H]IP1) in intact CHO-K1 cells, rat NTR1; assay type: cell-based
T1 construct: expressed in transfected cells; host or cells: CHO-K1
Experimental: (§2) To measure PI turnover, intact CHO-K1 cells were harvested at about 80% confluency. Cells were detached from the petri plates by removal of culture medium followed by incubation of the cellular monolayer for 20 minutes at 37° C. with gentle shaking in a modified Puck's D1 solution containing 2 mM EGTA. […] Briefly, intact CHO cells were prelabeled with D-myo-[^3H]inositol (18.3 Ci/mmol) in the presence of lithium chloride (final concentration, 10 mM). […] For the experiments described herein, the stimulation time was 30 minutes, and the number of CHO cells per assay tube was 1.5×10^5.

human NTR1 [4] = biological target: T2, human NTR1 (Homo sapiens, UniProt P30989); assay: PI turnover ([3H]IP1) in intact CHO-K1 cells, human NTR1; assay type: cell-based
T2 construct: expressed in transfected cells; host or cells: CHO-K1
Experimental: as §2

human NTR1 [5] = biological target: T2, human NTR1; assay: Competition binding with [3H]NT, membranes of CHO-K1 cells transfected with human NTR1
Experimental: (§3) CHO-K1 cells were stably transfected with nucleic acid encoding either the human NTR1 or the rat NTR1, and cultured in 150 mm petri plates with 35 mL of Dulbecco-modified Eagle's medium containing 100 μM minimal essential medium nonessential amino acids (GIBCO) supplemented with 5% (v/v) FetalClone II bovine serum product (Hyclone Labs, Logan, Utah). CHO cells (subculture 9–19) were harvested at confluency. Briefly, the medium from each plate was removed by aspiration, and the cells washed with 6 mL of 50 mM Tris-HCl (pH 7.4) and resuspended in 5–10 mL of Tris-HCl by scraping the cells with a rubber spatula. The resuspended cells were placed into a centrifuge tube and collected by centrifugation at 300× g for five minutes at 4° C. in a GPR centrifuge (Beckman Instruments, Fullerton, Calif.). The cellular pellet (in 50 mM Tris-HCl, 1 mM EDTA, pH 7.4) was stored at […] until radioligand binding was performed.
(§4) The supernatant was decanted and discarded, and the cellular pellet was resuspended in 2 mL of Tris-HCl, 1 mM EDTA (pH 7.4) followed by homogenization with a Brinkmann Polytron at setting 6 for ten seconds. Centrifugation was repeated as above and the supernatant was decanted and discarded. The resulting final cellular pellet was resuspended in 50 mM Tris-HCl, lmM EDTA, 0.1% bovine serum albumin, and 0.2 mM bacitracin.
(§5) Incubation was at 20° C. for 30 minutes. Each reaction was terminated by addition of cold 0.9% NaCl (5×1.5 mL) followed by rapid filtration through a GF/B filter strip that had been pretreated with 0.2% polyethylenimine.

[6] = Degradation in human plasma (HPLC peak area); assay type: in vitro ADME; conditions: 25% plasma, 37° C., 0.5 mg/mL polypeptide; for half-life at 0.5 mg/mL: human, read-out: half-time, Plasma Human (converted)
Text: as §1

[7] = Body temperature (hypothermia) in rats; conditions: for Peak BT change / time of Peak BT change: rats; for induction of hypothermia: intraperitoneal administration (NT64L 1 mg/kg)
rat NTR1 [8] = biological target: T1, rat NTR1; assay: Competition binding with [3H]NT, membranes of CHO-K1 cells transfected with rat NTR1
Experimental: as §3, §4, §5

[9] = Degradation in rat plasma (HPLC peak area); assay type: in vitro ADME; conditions: 25% plasma, 37° C., 0.5 mg/mL polypeptide, read-out: half-time, Plasma Rat (converted)
Text: as §1

5HT2A receptor = 5HT2A receptor (Homo sapiens, UniProt P28223); assay: Competitive binding with [3H]ketanserin, human brain tissue; conditions: for competition with labeled ketanserin for binding at the 5HT2A receptor: human brain tissue
dopamine D2 receptors = biological target: T3, dopamine D2 receptors (Homo sapiens, UniProt P14416); assay: Radiolabeled competitive binding, human brain tissue, dopamine
T3 construct: Human brain tissue; from tissue; host or cells: human brain tissue

adrenergic α1 receptors = assay: Radiolabeled competitive binding, human brain tissue, adrenergic α1
Muscarinic = assay: Radiolabeled competitive binding, human brain tissue, muscarinic
α2-adrenergic receptors = assay: Radiolabeled competitive binding, human brain tissue, adrenergic α2

With `CN[C@@H](CCCNC(=N)N)C(=O)N[C@@H](CCCCN)C(=O)N1CCC[C@H]1C(=O)N[C@@H](Cc1c[nH]c2ccccc12)C(=O)N[C@H](C(=O)N[C@@H](CC(C)C)C(=O)O)C(C)(C)C` [Eisai, reference compound] (H-[NMeR]KPW[Tle]L-OH; N-terminus and C-terminus assumed) the half-life [1] was 22 h, the “time of Peak % MPE” value ([2]; 1 mg/kg intraperitoneal, rats) was 90 min and the “induction of antinociception (hot plate)” value [2] was “did induce”. The “ED50 % MPE” value ([2]; @ 30 min) was 0.42 mg/kg, the “ED50 % MPE” value ([2]; @ 90 min) was 0.08 mg/kg and the EC50 (rat NTR1 [3]) was 3.1 nM. The EC50 (human NTR1 [4]) was 300 nM, the “weaker at the human NT receptor than at the rat NT receptor, PI turnover” value (human NTR1 [4]) was roughly 100 fold and the “weaker at the human NT receptor compared to binding affinity at the rat receptor” value (human NTR1 [5]; binding) was roughly 20 fold. For the same compound, the half-life at 0.5 mg/mL [6] was 460 h, the “Peak BT change” value ([7]; 1 mg/kg intraperitoneal) was −2.9 @ ° C and the “time of Peak BT change” value ([7]; 1 mg/kg intraperitoneal) was 60 min. For the same compound, the induction of hypothermia [7] was “did induce”, the “ED50 BT” value ([7]; intraperitoneal, @ 30 min) was 0.26 mg/kg and the “ED50 BT” value ([7]; intraperitoneal, @ 90 min) was 0.12 mg/kg. For the same compound, the “peak reduction in body temperature” value ([7]; intraperitoneal, dose not restated) was “about 3 °C”.
For `CC(C)C[C@H](NC(=O)[C@@H](NC(=O)[C@H](Cc1cccc2[nH]ccc12)NC(=O)[C@@H]1CCCN1C(=O)[C@H](CCCNC(=N)N)NC(=O)[C@H](N)CCCCN)C(C)(C)C)C(=O)O` [NT66L] (H-[dK]RP[Ala(indol-4-yl)][Tle]L-OH; N-terminus and C-terminus assumed), the Kd (rat NTR1 [8]) was 0.85 ± 0.09 nM, the half-life at 0.5 mg/mL [9] was 350 h and the “Peak % MPE” value ([2]; 1 mg/kg intraperitoneal, rats) was 100% @. The “time of Peak % MPE” value ([2]; 1 mg/kg intraperitoneal, rats) was 120 min, the “Peak % MPE” value ([2]; 5 mg/kg intraperitoneal, rats) was 100% @ and the “time of Peak % MPE” value ([2]; 5 mg/kg intraperitoneal, rats) was 330 min. The “induction of antinociception (hot plate)” value [2] was “did induce”, the “ED50 % MPE” value ([2]; @ 30 min) was 0.04 mg/kg and the “ED50 % MPE” value ([2]; @ 60 min) was 0.02 mg/kg. The “peak % MPE value” ([2]; oral, 20 mg/kg) was 40%, the “time of Peak % MPE” value ([2]; oral, 20 mg/kg) was 60 min and the Kd (5HT2A receptor) was 8700 nM. The “competition with labeled ketanserin for binding at the 5HT2A receptor” value (5HT2A receptor) was “found to compete”, the EC50 (rat NTR1 [3]) was 1.9 ± 0.4 nM and the Kd (dopamine D2 receptors) was 56000 nM. For the same compound, the EC50 (human NTR1 [4]) was 10 nM, the Kd (adrenergic α1 receptors; read-out: Kd adrenergic α1) was 38000 nM and the Kd (human NTR1 [5]) was 3.7 ± 0.4 nM. The half-life at 0.5 mg/mL [6] was 170 h, the “Peak BT change” value ([7]; 1 mg/kg intraperitoneal) was −3.0 @ ° C and the “time of Peak BT change” value ([7]; 1 mg/kg intraperitoneal) was 240 min. For the same compound, the “Peak BT change” value ([7]; 5 mg/kg intraperitoneal) was −5.0 @ ° C, the “time of Peak BT change” value ([7]; 5 mg/kg intraperitoneal) was 120 min and the induction of hypothermia [7] was “did induce”. For the same compound, the “ED50 BT” value ([7]; intraperitoneal, @ 30 min) was 0.45 mg/kg, the “ED50 BT” value ([7]; intraperitoneal, @ 60 min) was 0.18 mg/kg and the “peak reduction in body temperature (change)” value ([7]; oral, 20 mg/kg) was −1.4 °C. For the same compound, the “time of peak reduction in body temperature” value ([7]; oral, 20 mg/kg) was 30 min.
`CC[C@H](C)[C@H](NC(=O)[C@H](Cc1cccc2[nH]ccc12)NC(=O)[C@@H]1CCCN1C(=O)[C@H](CCCNC(=N)N)NC(=O)[C@H](N)CCCCN)C(=O)N[C@@H](CC(C)C)C(=O)O` [NT67L] (H-[dK]RP[Ala(indol-4-yl)]IL-OH; N-terminus and C-terminus assumed) showed a half-life [1] of 0.77 h, a Kd (rat NTR1 [8]) of 0.21 ± 0.02 nM and a half-life at 0.5 mg/mL [9] of 130 h. The “Peak % MPE” value ([2]; 1 mg/kg intraperitoneal, rats) was 70% @, the “time of Peak % MPE” value ([2]; 1 mg/kg intraperitoneal, rats) was 90 min and the “induction of antinociception (hot plate)” value [2] was “did induce”. The “competition with labeled ketanserin for binding at the 5HT2A receptor” value (5HT2A receptor) was “found to compete”, the Kd (dopamine D2 receptors) was greater than 100000 nM and the Kd (Muscarinic) was greater than 100000 nM. For the same compound, the EC50 (human NTR1 [4]) was 0.83 nM, the Kd (adrenergic α1 receptors; read-out: Kd adrenergic α1 receptors) was 6900 nM and the Kd (human NTR1 [5]) was 0.61 ± 0.06 nM. For the same compound, the “reduction in binding affinity compared to NT64L” value (human NTR1 [5]; NT receptor binding) was “about six fold lower”, the “half-time, Plasma Human” value [6] was “about 96 hours” and the half-life at 0.5 mg/mL [6] was 96 h. For the same compound, the “Peak BT change” value ([7]; 1 mg/kg intraperitoneal) was −1.8 @ ° C, the “time of Peak BT change” value ([7]; 1 mg/kg intraperitoneal) was 120 min and the induction of hypothermia [7] was “did induce”. It also gave a Kd (α2-adrenergic receptors) greater than 100000 nM.
